Reference: US10029986B2, “Alkynyl pyridine-substituted amide compound and pesticide” (NISSAN CHEMICAL INDUSTRIES, LTD., priority 2014, dated 2018)

Columns and labels:
Puccinia recondita = assay: Test on the preventive effect against wheat leaf rust; assay type: in vivo; conditions: 216 h, test solution A 500 ppm, 5 ml per pot, wheat 1.3-leaf stage, 1 day inoculation chamber then 8 days at 20° C.
Protocol: (§1) Compounds of the present invention were dissolved in a solvent for emulsion (a mixture of Sorpol (registered trademark) 3005XL (manufactured by Toho Chemical Industry Co., Ltd.): N-methylpyrrolidone: Solvesso (registered trademark) 200 (manufactured by ExxonMobil Chemical) in a ratio of 1:5:2) to prepare 20 wt % emulsifiable concentrates. Then, distilled water was added to dilute the emulsifiable concentrates to the prescribed concentration (500 ppm), and the obtained solutions were used in the following the Test Examples 1 to 8. Wheat (varieties: Norin 61) was seeded in 90 cm^3 plastic pot, and at 1.3-leaf stage, 5 ml per pot of test solution A of the compounds of the present invention was applied. One day after treatment, a suspension of spores of Puccinia recondita was sprayed to the wheat, and the pot was left in the inoculation chamber at 20° C. under humidity of 100% RH for 1 day. Thereafter, the pot was placed in an air-conditioned greenhouse (20° C.) for 8 days. The proportion of the formed lesion in the inoculated leaves were counted to calculate the control value in accordance with the same formula as in the Test Example 1. The test was carried out in duplicate.

Botrytis cinerea = assay: Test on the preventive effect against cucumber gray mold (spore inoculation); assay type: in vivo; conditions: 72 h, test solution A 500 ppm, 5 ml per pot, cucumber cut leaves, conidium inoculation, 3 days at 20° C.
Protocol: Compounds of the present invention were dissolved in a solvent for emulsion (a mixture of Sorpol (registered trademark) 3005XL (manufactured by Toho Chemical Industry Co., Ltd.): N-methylpyrrolidone: Solvesso (registered trademark) 200 (manufactured by ExxonMobil Chemical) in a ratio of 1:5:2) to prepare 20 wt % emulsifiable concentrates. Then, distilled water was added to dilute the emulsifiable concentrates to the prescribed concentration (500 ppm), and the obtained solutions were used in the following the Test Examples 1 to 8. Cucumber (varieties: Sagami Hanjiro) was seeded in 90 cm^3 plastic pot, and at the cotyledon stage, 5 ml per pot of test solution A of the compounds of the present invention was applied. After drying in air, the treated leaves were cut and transferred in plastic containers. 30 μl of a mixture of a suspension of conidium of Botrytis cinerea and a dissolved PDA medium in a ratio of 1:1 was dropped on each treated leaf and inoculated. After the inoculation, the plastic containers were placed in 20° C. with humid conditions for 3 days, and the proportion of the formed lesion in the inoculated leaves were counted to calculate the control value in accordance with the same formula as in the Test Example 1. The test was carried out in duplicate.

[1] = tested on: Phaeosphaeria nodorum (Synonym: Septoria nodorum); assay: Test on the preventive effect against wheat glume blotch; assay type: in vivo; conditions: Parastagonospora nodorum, 144 h; test solution A 500 ppm, 5 ml per pot, wheat 1.3-leaf stage, 2 days inoculation chamber then 6 days at 20° C.
Protocol: as §1, with “(varieties: Haruyutaka)” for “(varieties: Norin 61)”, “of conidium” for “of spores”, “of Phaeosphaeria nodorum (Synonym: Septoria nodorum)” for “of Puccinia recondita”, “for 2 days. Then,” for “for 1 day. Thereafter,”, “for 6” for “for 8”, “were measured” for “were counted”

[2] = tested on: Blumeria graminis f. sp. tritici; assay: Test on the preventive effect against wheat powdery mildew; assay type: in vivo; conditions: 168 h, test solution A 500 ppm, 5 ml per pot, wheat 1.3-leaf stage, 7 days after inoculation
Protocol: Compounds of the present invention were dissolved in a solvent for emulsion (a mixture of Sorpol (registered trademark) 3005XL (manufactured by Toho Chemical Industry Co., Ltd.): N-methylpyrrolidone: Solvesso (registered trademark) 200 (manufactured by ExxonMobil Chemical) in a ratio of 1:5:2) to prepare 20 wt % emulsifiable concentrates. Then, distilled water was added to dilute the emulsifiable concentrates to the prescribed concentration (500 ppm), and the obtained solutions were used in the following the Test Examples 1 to 8. Wheat (varieties: Norin 61) was seeded in 90 cm^3 plastic pot, and at the 1.3-leaf stage, 5 ml per pot of test solution A of the compounds of the present invention were applied. One day after treatment, the pot was placed in an air-conditioned greenhouse (20° C.), and conidium of Blumeria graminis f. sp. tritici was inoculated to the wheat. 7 days after, the proportion of the formed lesion in the inoculated leaves were measured to calculate the control value in accordance with the same formula as in the Test Example 1. The test was carried out in duplicate.

[3] = tested on: Erysiphe polygoni (synonym: Erysiphe betae); assay: Test on the preventive effect against cucumber powdery mildew; assay type: in vivo; conditions: 216 h, test solution A 500 ppm, 5 ml per pot sprayed, cucumber cotyledon stage, 9 days after inoculation
Protocol: Compounds of the present invention were dissolved in a solvent for emulsion (a mixture of Sorpol (registered trademark) 3005XL (manufactured by Toho Chemical Industry Co., Ltd.): N-methylpyrrolidone: Solvesso (registered trademark) 200 (manufactured by ExxonMobil Chemical) in a ratio of 1:5:2) to prepare 20 wt % emulsifiable concentrates. Then, distilled water was added to dilute the emulsifiable concentrates to the prescribed concentration (500 ppm), and the obtained solutions were used in the following the Test Examples 1 to 8. Cucumber (varieties: Sagami Hanjiro) was seeded in 90 cm^3 plastic pot, and at the cotyledon stage, 5 ml per pot of test solution A of the compounds of the present invention was sprayed. After drying in air, the pot was placed in an air-conditioned greenhouse (20° C.), and a suspension of conidium of Erysiphe polygoni (synonym: Erysiphe betae) was sprayed. After the pot were replaced at the same temperature for 9 days, the proportion of the formed lesion in the inoculated leaves were counted to calculate the control value in accordance with the following formula. The test was carried out in duplicate. Control value=[1−(lesion area ratio in treated plot/lesion are a ratio in non-treated plot)]×100

SMILES | pest or weed control at 500 µg/mL (Puccinia recondita) [%] | pest or weed control at 500 µg/mL (Botrytis cinerea) [%] | melting point [°C] | pest or weed control at 500 µg/mL [1] [%] | pest or weed control at 500 µg/mL [2] [%] | pest or weed control at 500 µg/mL [3] [%]
COC(c1ncc(C#CC2CC2)cc1Cl)C(C)NC(=O)c1sc(C)nc1C(F)F (stereo not shown) [9-006b] | ≥ 70 |  |  |  |  | 
Cn1cc(C(=O)N(C(=O)OC(C)(C)C)C2CC2c2ncc(C#CC3CC3)cc2Cl)c(C(F)F)n1 (stereo not shown) [12-002, tert-butyl N-[2-[3-chloro-5-(cyclopropylethynyl)pyridin-2-yl]cyclopropyl]-N-[3-difluoromethyl-1-methyl-1H-pyrazole-4-carbonyl]carbamate] |  | ≥ 70 | 110 to 112 |  |  | 
CCOC(=O)C(CNC(=O)c1cn(C)nc1C(F)F)(C(=O)OCC)c1ncc(C#CC2CC2)cc1Cl [8-023, 2-[3-chloro-5-(cyclopropylethynyl)pyridin-2-yl]-2-[(3-difluoromethyl-1-methyl-1H-pyrazole-4-carboxamide)methyl]malonic acid diethyl ester] |  | ≥ 70 | 87 to 88 | ≥ 70 | ≥ 70 | ≥ 70
N#CC(C#N)(CNC(=O)c1ccccc1C(F)(F)F)c1ncc(C#CC2CC2)cc1Cl [1-023, N-[2-[3-chloro-5-(cyclopropylethynyl)pyridin-2-yl]-2,2-dicyanoethyl]-2-(trifluoromethyl)benzamide] |  |  | 42 to 44 | ≥ 70 |  | 
